Where “and” joins values, the source holds several entries; their conditions need not be identical. Equal values may be shown once. Marks after values point to notes of the source that are not given here.
How the values were obtained:
[1] = Test 4 / Group 3 feedlot study: backfat by serial ultrasound, steers by leptin (ob) genotype and drug status; assay type: in vivo, cattle (steers of mixed breed); conditions: Drug group; for Backfat, mm d 1: 1st measure (1 days on feed); for Backfat, mm d 1 / Backfat, mm d 2 / Backfat, mm d 3: before drug; for Backfat, mm d 2: 2nd measure (60 days on feed); for Backfat, mm d 3: 3rd measure (104 days on feed); for Backfat, mm d 4: 4th measure (129 days on feed), after drug; for d to 10 mm (days needed to reach target backfat) / d to 12 mm (days needed to reach target backfat) / d to 14 mm (days needed to reach target backfat): from fitted model; for Rate (k, rate of backfat; fitted nonlinear parameter): model Y = 3.88e^kt, animal as experimental unit
Procedure: (§1) In test 4, 4172 hd of animals randomized to treatment and pen were housed in 48 pens, such that a study was conducted to assess the effect of ob genotype on fat growth, body weight growth, and carcass parameters; as well as any potential interaction with the beta andrenergic agonist Zilpaterol. […] 7.89 mm in the CT animals, and 7.63 mm in CC animals; with an overall statistical genotype effect of P=0.01. […] 494.6 lbs for CT animals, and 479.5 lbs for the CC animals; with an overall statistical genotype effect of P<0.01. Also importantly, the rate of fat change over time depended on ob genotype (Table 2).
(§2) Three groups of cattle were used to evaluate the effect of leptin genotype on back fat measurements in beef cattle. Originally two groups of cattle were fed and managed with the objective of evaluating the effect of a nutritional treatment on backfat measures and were randomly assigned to dietary treatment. The third experiment was fed and managed with the objective to evaluate 1) the effect the ob gene genotype on carcass parameters, 2) the effect of ob genotype on fat growth in the live animal, and 3) any potential interaction between the beta andrenergic agonist Zilpaterol Hydrochloride and ob genotype. The original experimental design for group 1 & 2 was a randomized complete block design (RCBD) with steers being randomly assigned to block, or experimental pen, dietary treatment was included in the final statistical model detailed below. […] Group 1 was composed of 319 steers and was of mixed breed, and of either European or British descent without any representation of Bos indicus bloodlines. The breeds represented in Group 1 were Hereford, Angus, Charolais, Simmental, and Limousin. The second group included 157 Charolais cross steers. All the cattle entered the finishing period when body weight was approximately 385 kg. Group 3 was composed of 4172 steers of mixed breed, and all cattle within a block were slaughtered on a single day.
Backfat was measured after 1, 55 and 139 days on feed for Group 1, 69, 111, and 120 days on feed for Group 2, and 1, 60, 104, and 129 days on feed for Group 3 using an Aloka 500V diagnostic ultrasound unit equipped with a 17.2 cm, 3.5 MHz linear array transducer (Overseas Monitor Corporation, Ltd., Richmond, B.C.) following the procedure described by Perkins et al., (1992). Internal calipers of the ultrasounds unit were used to measure back fat. Ultrasound images were recorded on a VHS tale (Panasonic AG-5200; Matsushita Electric of Canada, Mississauga, ON).
Backfat was analyzed with repeated measurements at 1, 55 and 139 days on feed for Group 1, 69, 111, and 120 days on feed for Group 2, and 1, 60, 104, and 129 days on feed for Group 3 using the MIXED procedure of SAS (Wang and Goodewardene, 2004). The following model was used: […]=μ+ρi+αj+λκ+βl+(αβ)jl+(λβ)kl+eijkl. Where Yijkl is the observation for the jth treatment ration or drug status within the ith block at the kth measurement, μ is the overall mean, ρi is the fixed effect of the ith block, aj is the fixed effect of the jth treatment ration, λk is the fixed effect of the kth measurement, βl is the fixed effect for leptin genotype (GENO) and eijkl, is the normally identical and independently distributed error term. The interaction between leptin genotype and diet, (αβ)jl, and time of measurement (λβ)kl, was also tested. A heterogeneous autoregressive-one covariance structure was utilized in analysis of backfat. Least square means and standard errors for body weight and back fat were determined using the ESTIMATE statement in PROC MIXED. The SLICE option was used to estimate least square means of GENO on days of measurements with the DIFF option being used to detect differences. Significance for the main effect of GENO and pairwise comparisons was declared at P<0.05 and trends are noted P<0.10. […]

[2] = Test 4 / Group 3 feedlot study: body weight growth of steers by leptin (ob) genotype and drug status; assay type: in vivo, cattle (steers of mixed breed); conditions: Drug group; for BW, lbs d 1: 1st measure; for BW, lbs d 1 / BW, lbs d 2 / BW, lbs d 3: before drug; for BW, lbs d 2: 2nd measure; for BW, lbs d 3: 3rd measure; for BW, lbs d 4: 4th measure, after drug
Procedure: as §1, §2
Backfat was analyzed with repeated measurements at 1, 55 and 139 days on feed for Group 1, 69, 111, and 120 days on feed for Group 2, and 1, 60, 104, and 129 days on feed for Group 3 using the MIXED procedure of SAS (Wang and Goodewardene, 2004). The following model was used: […]=μ+ρi+αj+λκ+βl+(αβ)jl+(λβ)kl+eijkl. Where Yijkl is the observation for the jth treatment ration or drug status within the ith block at the kth measurement, μ is the overall mean, ρi is the fixed effect of the ith block, aj is the fixed effect of the jth treatment ration, λk is the fixed effect of the kth measurement, βl is the fixed effect for leptin genotype (GENO) and eijkl, is the normally identical and independently distributed error term. The interaction between leptin genotype and diet, (αβ)jl, and time of measurement (λβ)kl, was also tested. A heterogeneous autoregressive-one covariance structure was utilized in analysis of backfat. Least square means and standard errors for body weight and back fat were determined using the ESTIMATE statement in PROC MIXED. The SLICE option was used to estimate least square means of GENO on days of measurements with the DIFF option being used to detect differences. Significance for the main effect of GENO and pairwise comparisons was declared at P<0.05 and trends are noted P<0.10. […] Within each group of cattle retrospective exponential models were fitted to the longitudinal measurements of back fat as described by Brethour (2000). The NLIN procedure of SAS was used to fit the nonlinear exponential function Y=Ae^(kt), where Y=projected backfat, A=the initial backfat, k=rate of increase, and t=time in days.
In test 4, 4172 hd of animals randomized to treatment and pen were housed in 48 pens, such that a study was conducted to assess the effect of ob genotype on fat growth, body weight growth, and carcass parameters; as well as any potential interaction with the beta andrenergic agonist Zilpaterol. […]

[3] = administration of exogenous leptin; mice, chickens, pigs and sheep; cited from earlier work

## CC(C)N[C@@H]1CCn2c(=O)[nH]c3cccc(c32)[C@H]1O.Cl (racemic) [Drug, Zilpaterol Hydrochloride]
[1]; CC Genotype
  AFG, mm/d (Average Daily fat gain in millimeters): 0.051 mm/d
  Fat CH, mm: Backfat change before and after drug, difference between 3rd and 4th measure: 1.24 mm
  Fat CH, mm: Backfat change, difference between 1st and 4th measure: 7.30 mm
  Rate, 10-12: 0.0071
  Backfat, mm d 1: 3.46 mm
  Backfat, mm d 2: 7.44 mm
  Backfat, mm d 3: 9.60 mm
  Backfat, mm d 4: 10.7 mm
  d to 10 mm (days needed to reach target backfat): 144 days
  d to 12 mm (days needed to reach target backfat): 170 days
  d to 14 mm (days needed to reach target backfat): 192 days
  Rate (k, rate of backfat; fitted nonlinear parameter): 0.0069^a
[1]; CT Genotype
  AFG, mm/d (Average Daily fat gain in millimeters): 0.053 mm/d
  Fat CH, mm: Backfat change before and after drug, difference between 3rd and 4th measure: 1.35 mm
  Fat CH, mm: Backfat change, difference between 1st and 4th measure: 7.56 mm
  Rate, 10-12: 0.0072
  Backfat, mm d 1: 3.50 mm
  Backfat, mm d 2: 7.74 mm
  Backfat, mm d 3: 9.77 mm
  Backfat, mm d 4: 11.0 mm
  d to 10 mm (days needed to reach target backfat): 135 days
  d to 12 mm (days needed to reach target backfat): 160 days
  d to 14 mm (days needed to reach target backfat): 182 days
[1]; CT Genotype, Hydrochloride
  Rate (k, rate of backfat; fitted nonlinear parameter): 0.0077^1 and 0.0071^1
[1]; TT Genotype
  AFG, mm/d (Average Daily fat gain in millimeters): 0.054 mm/d
  Fat CH, mm: Backfat change before and after drug, difference between 3rd and 4th measure: 1.17 mm
  Fat CH, mm: Backfat change, difference between 1st and 4th measure: 7.71 mm
  Rate, 10-12: 0.0073
  Backfat, mm d 1: 3.62 mm
  Backfat, mm d 2: 7.98 mm
  Backfat, mm d 3: 10.26 mm
  Backfat, mm d 4: 11.3 mm
  d to 10 mm (days needed to reach target backfat): 126 days
  d to 12 mm (days needed to reach target backfat): 151 days
  d to 14 mm (days needed to reach target backfat): 173 days
  Rate (k, rate of backfat; fitted nonlinear parameter): 0.0075^bc
[2]; CC Genotype
  ADG, lbs/d (Average daily live bodyweight gain in pounds): 3.51 lbs/d
  BWCH, lbs: Body weight change before and after drug, difference between 3rd and 4th measure: 72.1 lbs
  BWCH, lbs: Body weight change, difference between 1st and 4th measure: 500.5 lbs
  BW, lbs d 1: 893.4 lbs
  BW, lbs d 2: 1181.1 lbs
  BW, lbs d 3: 1325.0 lbs
  BW, lbs d 4: 1394.8 lbs
[2]; CT Genotype
  ADG, lbs/d (Average daily live bodyweight gain in pounds): 3.64 lbs/d
  BWCH, lbs: Body weight change before and after drug, difference between 3rd and 4th measure: 93.8 lbs
  BWCH, lbs: Body weight change, difference between 1st and 4th measure: 518.9 lbs
  BW, lbs d 1: 890.3 lbs
  BW, lbs d 2: 1197.3 lbs
  BW, lbs d 3: 1317.1 lbs
  BW, lbs d 4: 1407.6 lbs
[2]; TT Genotype
  ADG, lbs/d (Average daily live bodyweight gain in pounds): 3.60 lbs/d
  BWCH, lbs: Body weight change before and after drug, difference between 3rd and 4th measure: 75.8 lbs
  BWCH, lbs: Body weight change, difference between 1st and 4th measure: 512.4 lbs
  BW, lbs d 1: 890.6 lbs
  BW, lbs d 2: 1191.9 lbs
  BW, lbs d 3: 1330.0 lbs
  BW, lbs d 4: 1399.0 lbs

## leptin: 16-kDa adipocyte-specific polypeptide encoded by the ob (obese) gene
[3]
  body mass: dramatically reduces
  feed intake: dramatically reduces
